pIC50: −log10 of the molar value. Where a name gives a salt, the structure may show the parent alone.
Experiments:
human LSD1 = human LSD1 (Homo sapiens (Human), UniProt O60341); assay: Experiment 1A: in vitro LSD1 enzyme activity, enzyme-coupled fluorescence (HRP/Amplex Red), H3K4me peptide 20 μM (Wuhan Heyan); format: biochemical; settings: histone H3K4me peptide 20 μM
Method: Experiment 1A: Evaluation of Enzyme Activity
Testing unit: Wuhan Heyan Biomedical Technology Co., Ltd.
The purpose of the assay was to test the in vitro inhibitory activity of the compounds against LSD1. The enzyme used in the assay was human LSD1, and the standard substrate was histone H3K4me peptide (20 μM). The activity of the compounds was determined by the enzyme-coupling fluorescent method by the combined detection of H2O2 generated after the reaction of LSD1 by horseradish peroxidase (HRP) and the fluorescent reagent Amplex Red. Starting from 10 μM, the compounds were 3-fold diluted to detect the IC50 values of the compounds at 10 concentrations. The enzyme and substrate were incubated for 30 minutes before the compound was added to the substrate to start the reaction. Fluorescence detector: EnVision, excitation wavelength: Ex/Em=530/590 nM.

NCI-H1417 cells = assay: Experiment 2: inhibition of NCI-H1417 cell proliferation (CellTiter-Glo, 10 days); format: cell-based; settings: Homo sapiens, 240 h, 10 days incubation
Summary of the method: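 Cells at 1000 per well exposed to 10-point 3-fold dilutions from 10 μM top concentration for 10 days. Viability by CellTiter-Glo luminescence; inhibition normalized to max/min controls, IC50 from four-parameter fit.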

[1] = Experiment 3: pharmacokinetic evaluation in CD-1 mice (IV and oral); format: in vivo; settings: mouse, plasma, female CD-1 mice
Summary of the method: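 Male/female CD-1 mice aged 7-9 weeks, two per route, received single doses of 1 mg/kg IV or 2 mg/kg oral gavage in 10% DMSO/90% of 10% HP-β-cyclodextrin. Plasma was sampled from 0.083 (IV) or 0.25 (PO) to 24 h. Methanol-precipitated samples were measured by LC-MS/MS to derive Cmax, CL, T1/2, Vdss, AUC0-last and F.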

With `COc1ccc(-c2sc(C(=O)N3CC[C@H](N)C3)cc2-c2ccc(C#N)c(F)c2)cc1F` [Hydrochloride of compound 7] the pIC50 (human LSD1) was 6.92, the pIC50 (NCI-H1417 cells) was 7.69 and the clearance ([1]; IV 1 mg/kg, read-out: Clearance rate CL) was 20.9 mL/min/kg. It also gave a half-life ([1]; IV 1 mg/kg, read-out: Half life T1/2 (IV, h) (converted)) of 3.74 h, a Vd ([1]; IV 1 mg/kg, read-out: Volume of distribution at steady state Vdss) of 6.19 L/kg and a bioavailability ([1]; PO 2 mg/kg vs IV 1 mg/kg, read-out: Bioavailability F (%)) of 52.4%. It also gave an AUC(0-t) ([1]; PO 2 mg/kg, read-out: Area under drug-time curve AUC0-last PO) of 1.89 µM·h and a Cmax ([1]; single dose, oral 2 mg/kg, read-out: Peak concentration Cmax) of 176 nM.

From patent publication US20240199571A1, “THIOPHENE COMPOUND AND APPLICATION THEREOF” (MEDSHINE DISCOVERY INC., priority 2021, published 2024)
